Results as given in ChEMBL document CHEMBL1126257, “Fluoronaphthyridines and -quinolones as antibacterial agents. 5. Synthesis and antimicrobial activity of chiral 1-tert-butyl-6-fluoro-7-substituted-naphthyridones” (J Med Chem, 1992).
Values after ≈ are worked out from the molar mass of the structure shown.

System: Serratia marcescens
Test: In vitro antibacterial activity against Serratia marcescens A 20019.
Type: functional
Conditions: Serratia marcescens; read-out: MIC

Structure (SMILES) | MIC
C[C@@H]1CN(c2nc3c(cc2F)c(=O)c(C(=O)O)cn3C(C)(C)C)C[C@@H]1N | 0.5 µg/mL (≈ 1.38 µM)
C[C@@H]1C[C@H](N)CN1c1nc2c(cc1F)c(=O)c(C(=O)O)cn2C(C)(C)C | 2 µg/mL (≈ 5.52 µM)
C[C@H]1CN(c2nc3c(cc2F)c(=O)c(C(=O)O)cn3C(C)(C)C)C[C@@H]1N | 0.5 µg/mL (≈ 1.38 µM)

The next lines start with the values.

MIC | Structure (SMILES)
0.5 µg/mL (≈ 1.33 µM) | CC1(C)CN(c2nc3c(cc2F)c(=O)c(C(=O)O)cn3C(C)(C)C)C[C@H]1N
1 µg/mL (≈ 2.66 µM) | CN(C)C1CCN(c2nc3c(cc2F)c(=O)c(C(=O)O)cn3C(C)(C)C)C1 (stereo not given)

System: Enterococcus faecalis
Test: In vitro antibacterial activity against Enterococcus faecalis A9809.
Type: functional
Conditions: Enterococcus faecalis; read-out: MIC

Structure (SMILES) | MIC
C[C@@H]1CN(c2nc3c(cc2F)c(=O)c(C(=O)O)cn3C(C)(C)C)C[C@@H]1N | 0.5 µg/mL (≈ 1.38 µM)
C[C@@H]1C[C@H](N)CN1c1nc2c(cc1F)c(=O)c(C(=O)O)cn2C(C)(C)C | 0.5 µg/mL (≈ 1.38 µM)
C[C@H]1CN(c2nc3c(cc2F)c(=O)c(C(=O)O)cn3C(C)(C)C)C[C@@H]1N | 0.25 µg/mL (≈ 0.69 µM)

The next lines start with the values.

MIC | Structure (SMILES)
0.25 µg/mL (≈ 0.664 µM) | CC1(C)CN(c2nc3c(cc2F)c(=O)c(C(=O)O)cn3C(C)(C)C)C[C@H]1N
1 µg/mL (≈ 2.66 µM) | CN(C)C1CCN(c2nc3c(cc2F)c(=O)c(C(=O)O)cn3C(C)(C)C)C1 (stereo not given)

System: Klebsiella pneumoniae
Test: In vitro antibacterial activity against Klebsiella pneumoniae A 9664.
Type: functional
Conditions: Klebsiella pneumoniae; read-out: MIC

Structure (SMILES) | MIC
C[C@@H]1CN(c2nc3c(cc2F)c(=O)c(C(=O)O)cn3C(C)(C)C)C[C@@H]1N | 0.06 µg/mL (≈ 0.166 µM)
C[C@@H]1C[C@H](N)CN1c1nc2c(cc1F)c(=O)c(C(=O)O)cn2C(C)(C)C | 0.25 µg/mL (≈ 0.69 µM)
C[C@H]1CN(c2nc3c(cc2F)c(=O)c(C(=O)O)cn3C(C)(C)C)C[C@@H]1N | 0.25 µg/mL (≈ 0.69 µM)

The remaining lines, values ahead:

MIC | Structure (SMILES)
0.13 µg/mL (≈ 0.345 µM) | CC1(C)CN(c2nc3c(cc2F)c(=O)c(C(=O)O)cn3C(C)(C)C)C[C@H]1N
0.13 µg/mL (≈ 0.345 µM) | CN(C)C1CCN(c2nc3c(cc2F)c(=O)c(C(=O)O)cn3C(C)(C)C)C1 (stereo not given)

System: Enterobacter cloacae
Test: In vitro antibacterial activity against Enterobacter cloacae A 9656.
Type: functional
Conditions: Enterobacter cloacae; read-out: MIC

Structure (SMILES) | MIC
C[C@@H]1CN(c2nc3c(cc2F)c(=O)c(C(=O)O)cn3C(C)(C)C)C[C@@H]1N | 0.03 µg/mL (≈ 0.0828 µM)
C[C@@H]1C[C@H](N)CN1c1nc2c(cc1F)c(=O)c(C(=O)O)cn2C(C)(C)C | 0.25 µg/mL (≈ 0.69 µM)
C[C@H]1CN(c2nc3c(cc2F)c(=O)c(C(=O)O)cn3C(C)(C)C)C[C@@H]1N | 0.03 µg/mL (≈ 0.0828 µM)

Next, values leading:

MIC | Structure (SMILES)
0.03 µg/mL (≈ 0.0797 µM) | CC1(C)CN(c2nc3c(cc2F)c(=O)c(C(=O)O)cn3C(C)(C)C)C[C@H]1N
1 µg/mL (≈ 2.66 µM) | CN(C)C1CCN(c2nc3c(cc2F)c(=O)c(C(=O)O)cn3C(C)(C)C)C1 (stereo not given)

System: Enterococcus faecium
Test: In vitro antibacterial activity against Enterococcus faecium A 24885.
Type: functional
Conditions: Enterococcus faecium; read-out: MIC

Structure (SMILES) | MIC
C[C@@H]1CN(c2nc3c(cc2F)c(=O)c(C(=O)O)cn3C(C)(C)C)C[C@@H]1N | 4 µg/mL (≈ 11 µM)
C[C@@H]1C[C@H](N)CN1c1nc2c(cc1F)c(=O)c(C(=O)O)cn2C(C)(C)C | 2 µg/mL (≈ 5.52 µM)
C[C@H]1CN(c2nc3c(cc2F)c(=O)c(C(=O)O)cn3C(C)(C)C)C[C@@H]1N | 4 µg/mL (≈ 11 µM)

Further lines, results first:

MIC | Structure (SMILES)
2 µg/mL (≈ 5.31 µM) | CC1(C)CN(c2nc3c(cc2F)c(=O)c(C(=O)O)cn3C(C)(C)C)C[C@H]1N
8 µg/mL (≈ 21.3 µM) | CN(C)C1CCN(c2nc3c(cc2F)c(=O)c(C(=O)O)cn3C(C)(C)C)C1 (stereo not given)

System: Staphylococcus aureus
Test: In vitro antibacterial activity against Staphylococcus aureus A9537.
Type: functional
Conditions: Staphylococcus aureus; read-out: MIC

Structure (SMILES) | MIC
C[C@@H]1CN(c2nc3c(cc2F)c(=O)c(C(=O)O)cn3C(C)(C)C)C[C@@H]1N | 0.015 µg/mL (≈ 0.0414 µM)
C[C@@H]1C[C@H](N)CN1c1nc2c(cc1F)c(=O)c(C(=O)O)cn2C(C)(C)C | 0.13 µg/mL (≈ 0.359 µM)
C[C@H]1CN(c2nc3c(cc2F)c(=O)c(C(=O)O)cn3C(C)(C)C)C[C@@H]1N | 0.015 µg/mL (≈ 0.0414 µM)

Second part, the molecule after the results:

MIC | Structure (SMILES)
0.015 µg/mL (≈ 0.0398 µM) | CC1(C)CN(c2nc3c(cc2F)c(=O)c(C(=O)O)cn3C(C)(C)C)C[C@H]1N
0.03 µg/mL (≈ 0.0797 µM) | CN(C)C1CCN(c2nc3c(cc2F)c(=O)c(C(=O)O)cn3C(C)(C)C)C1 (stereo not given)

System: Morganella morganii
Test: In vitro antibacterial activity against Morganella morganii A 15153.
Type: functional
Conditions: Morganella morganii; read-out: MIC

Structure (SMILES) | MIC
C[C@@H]1CN(c2nc3c(cc2F)c(=O)c(C(=O)O)cn3C(C)(C)C)C[C@@H]1N | 0.5 µg/mL (≈ 1.38 µM)
C[C@@H]1C[C@H](N)CN1c1nc2c(cc1F)c(=O)c(C(=O)O)cn2C(C)(C)C | 2 µg/mL (≈ 5.52 µM)
C[C@H]1CN(c2nc3c(cc2F)c(=O)c(C(=O)O)cn3C(C)(C)C)C[C@@H]1N | 0.25 µg/mL (≈ 0.69 µM)

Continued, values first:

MIC | Structure (SMILES)
0.5 µg/mL (≈ 1.33 µM) | CC1(C)CN(c2nc3c(cc2F)c(=O)c(C(=O)O)cn3C(C)(C)C)C[C@H]1N
0.5 µg/mL (≈ 1.33 µM) | CN(C)C1CCN(c2nc3c(cc2F)c(=O)c(C(=O)O)cn3C(C)(C)C)C1 (stereo not given)

System: Pseudomonas aeruginosa
Test: In vitro antibacterial activity against Pseudomonas aeruginosa A 9243.
Type: functional
Conditions: Pseudomonas aeruginosa; read-out: MIC

Structure (SMILES) | MIC
C[C@@H]1CN(c2nc3c(cc2F)c(=O)c(C(=O)O)cn3C(C)(C)C)C[C@@H]1N | 1 µg/mL (≈ 2.76 µM)
C[C@@H]1C[C@H](N)CN1c1nc2c(cc1F)c(=O)c(C(=O)O)cn2C(C)(C)C | 8 µg/mL (≈ 22.1 µM)
C[C@H]1CN(c2nc3c(cc2F)c(=O)c(C(=O)O)cn3C(C)(C)C)C[C@@H]1N | 2 µg/mL (≈ 5.52 µM)

More lines, now with the values ahead:

MIC | Structure (SMILES)
2 µg/mL (≈ 5.31 µM) | CC1(C)CN(c2nc3c(cc2F)c(=O)c(C(=O)O)cn3C(C)(C)C)C[C@H]1N
1 µg/mL (≈ 2.66 µM) | CN(C)C1CCN(c2nc3c(cc2F)c(=O)c(C(=O)O)cn3C(C)(C)C)C1 (stereo not given)

System: Escherichia coli
Test: In vitro antibacterial activity against Escherichia coli A 15119.
Type: functional
Conditions: Escherichia coli; read-out: MIC

Structure (SMILES) | MIC
C[C@@H]1CN(c2nc3c(cc2F)c(=O)c(C(=O)O)cn3C(C)(C)C)C[C@@H]1N | 0.13 µg/mL (≈ 0.359 µM)
C[C@@H]1C[C@H](N)CN1c1nc2c(cc1F)c(=O)c(C(=O)O)cn2C(C)(C)C | 0.25 µg/mL (≈ 0.69 µM)
C[C@H]1CN(c2nc3c(cc2F)c(=O)c(C(=O)O)cn3C(C)(C)C)C[C@@H]1N | 0.06 µg/mL (≈ 0.166 µM)

Continued, values first:

MIC | Structure (SMILES)
0.06 µg/mL (≈ 0.159 µM) | CC1(C)CN(c2nc3c(cc2F)c(=O)c(C(=O)O)cn3C(C)(C)C)C[C@H]1N
0.25 µg/mL (≈ 0.664 µM) | CN(C)C1CCN(c2nc3c(cc2F)c(=O)c(C(=O)O)cn3C(C)(C)C)C1 (stereo not given)
